Measurements taken from patent publication US6025387A, “Gastroprotective flavone/flavanone compounds with therapeutic effect on inflammatory bowel disease” (Dong a Pharmaceutical Co., Ltd., priority 1996, dated 2000).
≈ marks a conversion by molar mass, not a printed value.

How the values were obtained:
neutrophils = assay: Luminol-dependent chemiluminescence of neutrophils induced by FMLP; type: cell-based; conditions: 1 μM FMLP, 0.07 mM luminol; for IC50: Neutrophil, read-out: IC50, inhibition of chemiluminescence generated by neutrophil activation
Procedure: Measurement of luminol-dependent chemiluminescencei iof neutrophil induced by FMLP.
20 mL of 12% sodium caseinate-0.9% saline was administered intraperitoneally (Newsby, A. C., Biochem. J., 1980, 186: 907,. After 20 hours, the intraperitoneal exudate was extracted under ether anesthesia. The exudate was centrifuged, and erythrocytes were removed by hypotonic lysis, and then neutrophil was washed. Neutrophil was ascertained by Wright's dyeing method, and viability was measured by Trypan blue exclusion test. Chemiluminescence was measured by Topcount (Packard Co.). The suspension of 1.5×10^6 of granulocytes, 1 μM of FMLP, 0.07 mM of luminol and the compound in HBSS was used (Dahlgren, C., et al., Infect. Immun., 1985 47: 326-328).
**IC50 (μg/mL): Concentration of the compound at inhibiting
chemiluminescence generated by neutrophil activation to 50%

cyclooxygenase = assay: Cyclooxygenase activity in HUVEC (PGF1 α synthesis); type: cell-based
Procedure: Measurment of Cyclooxygenase Actvity
After addition of the compound to cultured HUVEC, the HUVEC was incubated at 37° C., for 30 minutes, then arachidonic acid (final concentration: 30 .rho.M) was added, and the HUVEC was additionally incubated at 37° C. for 15 minutes. The culture medium was taken, and the activity of cyclooxygenase for 6-Keto-PGF1 α or PGE2 was measured by radioimmunoassay (Mitchell, J. A., et al., Pro. Natl. Acad. Sci. USA 1994, 90: 11693-11697).
**SC200 (ug/mL) : Concentration at increasing generation of […]

[1] = test system: gastric mucosal damage induced by ethanolic HCl; assay: Gastritis model induced with ethanolic-HCl; type: in vivo, SD male rat; conditions: po, 1 h, rat; for inhibition in vivo at 0.3 mg/kg: 0.3 mg/kg p.o.; for inhibition in vivo at 1 mg/kg: 1 mg/kg p.o.; for inhibition in vivo at 3 mg/kg: 3 mg/kg p.o.
Procedure: Effect on the Gastritis Model Induced with Ethanolic-HCl.
SD male rat(250-350 g) was fasted for 24 hours. The compound was orally administered in suspension of 5% HPMC, and after 1 hour 1.5 mL of 150 mM HCl-80% ethanol was orally administered. After 1 hour the rat was sacrifieced and the stomach was extracted and the ulcer index was measured. The ulcer index was shown by the area of hemorrhage lesion(Mizui, T, et al., Jpn. J. Pharmacol. 1983, 33: 939).

ulcer = conditions: in vivo; cited from earlier work
gastric mucus secretion = assay: Measurement of gastric mucus; type: in vivo, SD male rat; conditions: oral, rat
Procedure: Measurement of Gastric Mucus
The compound was orally administered into SD male rat (200~250 g). After 1 hour the stomach was extracted. The extracted stomach was immediately washed with 10 mL of cold 0.25M sucrose solution. The gastric mucosa was dyed with 0.1% alcian blue solution for 2 hours. After dyeing, the gastric mucosa was washed with 0.25M sucrose solution twice for 15 minutes and for 45 minutes. The dyed gastric mucosa was treated with 10 mL of 30% dioctyl sodium sulfosuccinate solution for 2 hours to extract dyed mucus completely and optical density of aqueous phase was measured spectrophotometrically at 655 nm. The amount of mucus in the gastric mucosa was shown as the amount of alcian blue after calibration (Kitagawa, H., et al., Drug Res. 1986, 36: 1240-1244).

[2] = test system: chronic gastritis induced with acetic acid; assay: Model of chronic gastritis induced with acetic acid; type: in vivo, SD male rat; conditions: once a day for 21 days, rat
Procedure: Experiment on the Model of Chronic Gastritis Induced with Acetic Acid
From the next day of the surgical operation, the compound was orally administered once a day for 21 days. After 21 days, the stomach was extracted under ether anesthesis, dipped in 1% formalin solution and the area of gastric lesion was measured. […] An pathological tissue autopsy was carried out for the prepared specimen.

TNBS-induced colitis = TNBS-induced colitis model, oral administration; type: in vivo, male SD rats; conditions: for lesion scores: once a day for 13 days, rat; for adhesion degree / dilation and extention degree: score 0-3, rat
Procedure: Experiment on the Model of Inflammatory Bowl Diseases Induced with TNBS
7 week-aged male SD rats were fasted for a day, and the rats were put under anesthesia and canula (diameter 3 mm) was inserted into the anus to the depth of 8 cm. 25 mg/mL of TNBS (Trinitrobenzene sulfonic acid) dissolved in 50% ethanol solution was injected to each rat and the rats were positioned at feature of tail up for 1 minute. The solution flowing out was removed and the rats were once washed with 1.5 mL of saline solution. After colitis was induced, the compound was administered orally or intracolonically once a day for 13 days. For control, mesalazine (5-amino salicylic acid) was used for oral administration and prednisolone was used for rectal administration. At 14th day of experiment, each group of the rats were put under ether anesthesis, the colon was extracted and the degree of adhesion and extension of the large intestine were measured and their lesion scores were recorded. After 1% formalin solution was injected to the cavity of the extracted colon to inflate, the both ends of it were bonded with each other and it was all-fixed in 1% formalin solution for 2 hours. The all-fixed colon was cut to lengthy direction and washed to remove surrounding fat tissues and connective fissaes. After cecum was removed, the weight of the colon and the rectum was measured, and the area of ulcer lesion, and microscopic lesion were measured to mark scores according to the criterion. And they were fixed in 10% neutral formalin solution, and the tissue examination of lesion site was performed by general method to mark scores according to the criterion.
Clinical symptoms: Daily, we observed clinical symptoms and survival of the animals. And we measured the weight of the animals at the beginning day, third and eighth day of the experiment.
(0: non-adhesion, 1: adhesion exists but easily taken off by gloved hand, 2: more severe adhesion than 1 exists but easily taken off by scissors, 3: very severe adhesion exists, so it is difficult to be taken off by scissors because of possibility of its perforation.)
Degree of thickening and extension of the large intestine: We marked scores of the degree of thickness and extension of the large intestine according to the criterion, following the method of Kim et al., and compared with the average value of each group.
(0: lesion site non-existing, 1: a few degree of lesion, 2: intermediate degree of lesion, 3: severe degree of lesion)
We scored the lesion examined with the naked eye and compared the average value of each group. The standards of lesion scores as criterion of the damage of the colon by Wallace's method is as followings.
(0: normal, non-damaged, 1: congestion without ulcer 2: congestion and thickening of intestinal wall without ulcer, 3: an ulcer lesion without thickening of intestinal wall, 4: more than two ulcerous/inflammatory lesion, 5: more than two ulcerous/inflammatory lesion or the length of ulcerous/inflammatory lesion is more than 1 cm, 6-10: when the length of lesion is over 2 cm, one point increases everytime 1 cm of the length of ulcerous/inflammatory increases, for example, when the ulcer length is 3 cm, the point is 7.)
Microscopic evaluation: We trimmed the colon giving 3 cm interval from the rectum to the cecum, including the site of lesion examined with the naked eye, to make at least 4 specimens per an individual. […] When the lesion can not be examined with the naked eye, we trimmed the other specimen which has the lesion, with 3 cm interval.

Row | Structure (SMILES) | inhibition in vivo at 0.3 mg/kg [1] [%] | inhibition in vivo at 1 mg/kg [1] [%] | inhibition in vivo at 3 mg/kg [1] [%] | anti-ulcerative action (ulcer) | other results
1 | COc1ccc(-c2cc(=O)c3c(O)c(OC)c(OCC(=O)O)cc3o2)cc1OC [7-carboxymethyloxy-5-hydroxy-3',4',6-trimethoxy flavone] | 16 | 77 | 56 |  | IC50 (neutrophils): 1.73 µg/mL (≈ 4.3 µM); SC200, concentration increasing generation of PGF1α to 200% (cyclooxygenase): 18.41 µg/mL
2 | COc1ccc(-c2cc(=O)c3c(O)cc(OC)cc3o2)cc1 [apigenin-7,4'-dimethylether] |  |  |  | anti-ulcerative action | 
3 | O=c1c(O)c(-c2ccc(O)c(O)c2)oc2cc(O)cc(O)c12 [quercetin] |  |  |  | anti-ulcerative action | 
4 | COc1ccc(-c2cc(=O)c3c(OC)c(OC)c(OCCO)cc3o2)cc1OC [7-hydroxyethyloxy-3',4',5,6-tetramethoxy flavone] | 43 | 50 | 51 |  | IC50 (neutrophils): 0.13 µg/mL (≈ 0.323 µM)
5 | O=c1cc(-c2ccc(O)c(O)c2)oc2c(O[C@@H]3O[C@H](CO)[C@@H](O)[C@H](O)[C@H]3O)c(O)cc(O)c12 [hypolaetin-8-glucoside] |  |  |  | anti-ulcerative action | 
6 | COC(=O)COc1cc(OC)c2c(=O)cc(-c3ccc(OC)c(OC)c3)oc2c1 [7-methoxycarbomethyloxy-3',4',5-trimethoxy flavone] |  |  |  |  | IC50 (neutrophils): 0.95 µg/mL (≈ 2.37 µM)
7 | O=c1c(O)c(-c2ccc(O)cc2)oc2cc(O)cc(O)c12 [kampferol] |  |  |  | anti-ulcerative action | 
8 | COc1ccc([C@@H]2CC(=O)c3c(O)cc(O[C@@H]4O[C@H](CO[C@@H]5O[C@@H](C)[C@H](O)[C@@H](O)[C@H]5O)[C@@H](O)[C@H](O)[C@H]4O)cc3O2)cc1O [hesperidine] |  |  |  | anti-ulcerative action | 
9 | O=C(NC(Cc1cc(=O)[nH]c2ccccc12)C(=O)O)c1ccc(Cl)cc1 (centres unmarked) [Rebamipide, 2(4-chlorobenzoylamino)-3-(2-(LH)-quinolinone-4-yl)propanonic acid, reference compound] |  |  | 22 |  | IC50, inhibition of chemiluminescence generated by neutrophil activation (neutrophils): 92 µg/mL; IC50 (neutrophils): 92.1 µg/mL (≈ 248 µM); gastric mucus secretion, % Control (gastric mucus secretion; 10 mg/kg): 128 % Control; gastric mucus secretion, % Control (gastric mucus secretion; 100 mg/kg): 136 % Control; inhibition in vivo at 10 mg/kg ([1]; 10 mg/kg p.o.): 30%; inhibition in vivo at 30 mg/kg ([1]; 30 mg/kg p.o.): 47%; inhibiting% (gastric lesion) ([2]; 10 mg/kg p.o.): 41%; inhibiting% (gastric lesion) ([2]; 100 mg/kg p.o.): 7%
10 | COc1ccc(-c2cc(=O)c3c(O)c(OC)ccc3o2)cc1OC [5-hydroxy-3',4',6-trimethoxy flavone] | 38 | 42 | 64 |  | 
11 | COc1ccc(-c2cc(=O)c3c(OC)cc(OCCO)cc3o2)cc1OC [7-hydroxyethyloxy-3',4',5-trimethoxy flavone] | 0 | 34 | 47 |  | 
12 | Nc1ccc(O)c(C(=O)O)c1 [mesalazine, 5-amino salicylic acid, reference compound] |  |  |  |  | lesion scores (TNBS-induced colitis; 25 mg/kg p.o.): 2.8; adhesion degree (TNBS-induced colitis; 25 mg/kg p.o.): 1.4; dilation and extention degree (TNBS-induced colitis; 25 mg/kg p.o.): 0.9; lesion scores (TNBS-induced colitis; 50 mg/kg p.o.): 2.2; adhesion degree (TNBS-induced colitis; 50 mg/kg p.o.): 1.0; dilation and extention degree (TNBS-induced colitis; 50 mg/kg p.o.): 1.1
13 | CNC(=O)COc1cc(OC)c2c(=O)cc(-c3ccc(OC)c(OC)c3)oc2c1 [7-(N-methylamidomethyloxy)-3',4',5-trimethoxy flavone] | 43 | 47 | 45 |  | 
14 | O=C1C[C@@H](c2ccc(O)cc2)Oc2cc(O)cc(O)c21 [naringenin] |  |  |  | anti-ulcerative action | 
15 | COc1ccc(-c2cc(=O)c3cc(OC)c(OCC(=O)O)cc3o2)cc1OC [7-carboxymethyloxy-3',4',6-trimethoxy flavone] | 30 | 31 | 39 |  | 
16 | COc1ccc(C2CC(=O)c3c(OC)cc(O)cc3O2)cc1OC (centres unmarked) [7-hydroxy-3',4'5-trimethoxy flavanone, 7-hydroxy-3',4',5-trimethoxy flavanone] | 30 | 57 | 76 |  | 
17 | COc1ccc(C2CC(=O)c3c(cc(OCC(=O)O)c(OC)c3O)O2)cc1OC (centres unmarked) [7-carboxymethyloxy-5-hydroxy-3',4',6-trimethoxy flavanone] | 0 | 18 | 50 |  | IC50 (neutrophils): 1.79 µg/mL (≈ 4.43 µM)
